# Laboratory results published in US6750228B1, “Aromatic sulfone hydroxamic acid metalloprotease inhibitor” (priority 1997, dated 2004).
# pIC50: −log10 of the molar value. Where two headings read alike, the source gives them in different places.
# Columns and labels:
# Test in all cases: biochemical
# MMP-1 = biological target: T1, MMP-1 (Homo sapiens, UniProt P03956); conditions: read-out: MMP-1 IC50
# T1 construct: made in house; host or cells: transfected HT-1080 cells (provided by Dr. Harold Welgus, Washington University)
# T1 sequence (P03956 100-469): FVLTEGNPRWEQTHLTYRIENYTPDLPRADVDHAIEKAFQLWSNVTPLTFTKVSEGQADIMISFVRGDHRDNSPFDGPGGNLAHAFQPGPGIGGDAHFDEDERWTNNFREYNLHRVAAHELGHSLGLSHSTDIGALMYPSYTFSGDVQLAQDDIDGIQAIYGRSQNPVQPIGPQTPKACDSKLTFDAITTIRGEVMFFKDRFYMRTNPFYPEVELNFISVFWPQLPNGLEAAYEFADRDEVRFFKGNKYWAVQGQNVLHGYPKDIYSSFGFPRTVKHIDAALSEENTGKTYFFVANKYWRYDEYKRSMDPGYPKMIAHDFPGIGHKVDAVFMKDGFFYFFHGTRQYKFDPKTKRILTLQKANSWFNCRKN
# In short: (§1)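 Assay buffer 100 mM Tris-HCl, 100 mM NaCl, 10 mM CaCl2, pH 7.5. Activated MMP + inhibitor, 5 min RT; then methoxycoumarin peptide substrate, 4 μM final. Readout fluorescence; IC50 calculated.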
# MMP-2 = biological target: T2, MMP-2 (Homo sapiens, UniProt P08253); conditions: read-out: MMP-2 IC50
# T2 construct: made in house; provided by Dr. Gregory Goldberg, Washington University
# T2 sequence (P08253 110-660): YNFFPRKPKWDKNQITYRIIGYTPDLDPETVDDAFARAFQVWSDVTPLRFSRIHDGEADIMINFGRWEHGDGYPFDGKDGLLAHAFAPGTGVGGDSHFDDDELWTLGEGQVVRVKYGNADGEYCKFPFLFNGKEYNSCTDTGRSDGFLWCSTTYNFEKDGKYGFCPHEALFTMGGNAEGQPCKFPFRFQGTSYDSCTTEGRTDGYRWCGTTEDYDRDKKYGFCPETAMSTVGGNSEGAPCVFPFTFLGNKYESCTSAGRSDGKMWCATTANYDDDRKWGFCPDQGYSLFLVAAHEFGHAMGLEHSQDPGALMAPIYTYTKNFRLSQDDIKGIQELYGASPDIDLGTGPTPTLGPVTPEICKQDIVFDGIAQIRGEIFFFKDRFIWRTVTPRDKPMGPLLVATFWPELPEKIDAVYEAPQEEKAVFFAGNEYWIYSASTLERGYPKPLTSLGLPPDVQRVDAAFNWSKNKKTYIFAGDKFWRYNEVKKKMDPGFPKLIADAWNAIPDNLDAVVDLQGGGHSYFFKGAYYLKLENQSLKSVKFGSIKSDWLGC
# In short: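 APMA- or trypsin-activated enzymes were preincubated with inhibitor for 5 min at room temperature, then the fluorogenic substrate MCA-Pro-Leu-Gly-Leu-Dpa-Ala-Arg-NH2 was added to a final 4 μM.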
# MMP-13 = biological target: T3, MMP-13 (Homo sapiens, UniProt P45452); conditions: read-out: MMP-13 IC50
# T3 construct: made in house; host or cells: baculovirus / insect cells
# In short: as §1
# [1] = recombinant human MMP-1, MCA peptide substrate 4 μM, pH 7.5, room temperature
# [2] = recombinant human MMP-2, MCA peptide substrate 4 μM, pH 7.5, room temperature
# [3] = recombinant human MMP-13, MCA peptide substrate 4 μM, pH 7.5, room temperature
SMILES,pIC50 (MMP-1; [1]),pIC50 (MMP-2; [2]),pIC50 (MMP-13; [3]),pIC50 (MMP-1),pIC50 (MMP-2),pIC50 (MMP-13)
CC1CC(C)CN(C(=O)C2CCN(c3ccc(S(=O)(=O)C4(C(=O)NO)CCN(C(=O)CNCCCO)CC4)cc3)CC2)C1 (stereo not drawn) [Example 280],< 5.00,< 5.00,7.05,–,–,–
CCOc1ccccc1N1CCN(C(=O)C2CCN(c3ccc(S(=O)(=O)C4(C(=O)NO)CCOCC4)cc3)CC2)CC1 [Example 24],–,–,–,< 5.00,5.35,7.63
CCN1CCN(c2ccc(S(=O)(=O)C3(C(=O)NO)CCOCC3)cc2)CC1 [Example 622],< 5.00,5.80,6.30,–,–,–
O=C(NO)C1(S(=O)(=O)c2ccc(Oc3ccc(OC(F)(F)F)cc3)cc2)CCN(S(=O)(=O)c2cccc(C(F)(F)F)c2)CC1 [Example 196],< 5.00,> 10.00,8.80,–,–,–
O=C(NO)C1(S(=O)(=O)c2ccc(N3CCC(OCc4ccc(COCC(F)(F)C(F)(F)F)cc4)CC3)cc2)CCOCC1 [Example 565],< 5.00,6.15,8.26,–,–,–
O=C(NO)C1(S(=O)(=O)c2ccc(Oc3ccc(OC(F)(F)F)cc3)cc2)CCN(C2=NCCN2)CC1 [Example 413],5.10,9.52,8.96,–,–,–
Cc1cc(C)cc(OC2CCN(c3ccc(S(=O)(=O)C4(C(=O)NO)CCOCC4)cc3)CC2)c1 [Example 187],< 5.00,6.22,8.00,–,–,–
COc1ccc(C(=O)C2CCN(c3ccc(S(=O)(=O)C4(C(=O)NO)CCOCC4)cc3)CC2)cc1 [Example 647],< 5.00,6.80,8.22,–,–,–
O=C(Nc1cccc(OC(F)(F)F)c1)C1CCN(c2ccc(S(=O)(=O)C3(C(=O)NO)CCOCC3)cc2)CC1 [Example 68],< 5.00,5.74,7.89,–,–,–
O=C(NO)C1(S(=O)(=O)c2ccc(N3CC[C@@H](OCc4ccccc4)C3)cc2)CCOCC1 [Example 530],< 5.00,7.22,7.70,–,–,–
O=C(NO)C1(S(=O)(=O)c2ccc(N3CCC(OCc4ccc(COCC(F)(F)C(F)(F)C(F)(F)C(F)F)cc4)CC3)cc2)CCOCC1 [Example 611],< 5.00,5.74,6.86,–,–,–
O=C(NO)C1(S(=O)(=O)c2ccc(N3CCC(OCc4ccc(F)cc4)CC3)cc2)CCOCC1 [Example 164],< 5.00,6.36,8.46,–,–,–
O=C(NO)C1(S(=O)(=O)c2ccc(N3CCC(OCc4ccc(Cl)cc4)CC3)cc2)CCN(C2CC2)CC1 [Example 419],< 5.00,6.40,8.38,–,–,–
O=C(NO)C1(S(=O)(=O)c2ccc(Oc3ccc(C(F)(F)F)cc3)cc2)CCN(c2ncccc2[N+](=O)[O-])CC1 [Example 374],< 5.00,8.40,8.48,–,–,–
O=C(NO)C1(S(=O)(=O)c2ccc(N3CCC(CCOCc4ccccc4)CC3)cc2)CCOCC1 [Example 499],< 5.00,7.71,9.05,–,–,–
O=C(NO)C1(S(=O)(=O)c2ccc(N3CC=C(c4ccccc4)CC3)cc2)CCOCC1 [Example 587],< 5.00,9.00,8.74,–,–,–
O=C(NO)C1(S(=O)(=O)c2ccc(N3CCN(C4CCCC4)CC3)cc2)CCOCC1 [Example 488],< 5.00,6.43,6.85,–,–,–
COc1ccc(C(=O)C2CCN(c3ccc(S(=O)(=O)C4(C(=O)NO)CCN(C5CC5)CC4)cc3)CC2)cc1 [Example 441],< 5.00,6.38,8.22,–,–,–
CCc1cccc(C(=O)C2CCN(c3ccc(S(=O)(=O)C4(C(=O)NO)CCOCC4)cc3)CC2)c1 [Example 732],< 5.00,6.23,8.51,–,–,–
CN(Cc1cccnc1)C(=O)C1CCN(c2ccc(S(=O)(=O)C3(C(=O)NO)CCOCC3)cc2)CC1 [Example 497],< 5.00,5.10,7.30,–,–,–

SMILES,pIC50 (MMP-1; [1]),pIC50 (MMP-2; [2]),pIC50 (MMP-13; [3]),pIC50 (MMP-1),pIC50 (MMP-2),pIC50 (MMP-13)
CCCCCC(=O)C1CCN(c2ccc(S(=O)(=O)C3(C(=O)NO)CCOCC3)cc2)CC1 [Example 755],< 5.00,7.70,8.66,–,–,–
N#Cc1cc(F)cc(OC2CCN(c3ccc(S(=O)(=O)C4(C(=O)NO)CCOCC4)cc3)CC2)c1 [Example 474],< 5.00,6.52,7.92,–,–,–
O=C(c1cccc(C(F)(F)F)c1)C1CCN(c2ccc(S(=O)(=O)C3(C(=O)NO)CCOCC3)cc2)CC1 [Example 727],< 5.00,6.62,7.46,–,–,–
O=C(NO)C1(S(=O)(=O)c2ccc(N3CCC(Oc4ccc([N+](=O)[O-])c(C(F)(F)F)c4)CC3)cc2)CCOCC1 [Example 569],< 5.00,7.06,7.77,–,–,–
"O=C(NO)C1(S(=O)(=O)c2ccc(N3CCC(Oc4ccccc4)CC3)cc2)CCOCC1 [Example 185, N-Hydroxy-4[[[4-(4-phenoxy)piperidyl]phenyl]sulfonyl]-1-tetrahydropyrancarboxamide]",< 5.00,7.49,8.66,–,–,–
CCCCCC(=O)N1CCN(c2ccc(S(=O)(=O)C3(C(=O)NO)CCOCC3)cc2)CC1 [Example 592],< 5.00,6.16,7.24,–,–,–
COCCNCC(=O)N1CCC(C(=O)NO)(S(=O)(=O)c2ccc(Oc3ccc(C(F)(F)F)cc3)cc2)CC1 [Example 332],< 5.00,9.40,8.68,–,–,–
O=C(Nc1c(F)cccc1F)N1CCC(C(=O)NO)(S(=O)(=O)c2ccc(Oc3ccc(OC(F)(F)F)cc3)cc2)CC1 [Example 361],5.30,> 10.00,9.30,–,–,–
O=C(NO)C1(S(=O)(=O)c2ccc(Oc3ccncc3)cc2)CCSCC1 [Example 151],< 5.00,6.54,6.57,–,–,–
CCCCOC1CCN(c2ccc(S(=O)(=O)C3(C(=O)NO)CCNCC3)cc2)CC1 [Example 443],< 5.00,5.66,7.05,–,–,–
Cn1c(=O)n(C2CCN(c3ccc(S(=O)(=O)C4(C(=O)NO)CCOCC4)cc3)CC2)c2ccccc21 [Example 589],< 5.00,< 5.00,7.15,–,–,–
O=C(CNCc1ccccn1)N1CCC(C(=O)NO)(S(=O)(=O)c2ccc(Oc3ccc(C(F)(F)F)cc3)cc2)CC1 [Example 320],< 5.00,8.40,7.92,–,–,–
C=C(C)CC(=O)C1CCN(c2ccc(S(=O)(=O)C3(C(=O)NO)CCOCC3)cc2)CC1 [Example 759],< 5.00,7.22,8.52,–,–,–
O=C(NO)C1(S(=O)(=O)c2ccc(N3CCc4ccccc4C3)cc2)CCOCC1 [Example 484],< 5.00,7.00,6.62,–,–,–
COCCN1CCC(C(=O)NO)(S(=O)(=O)c2ccc(N3CCC(OCc4ccc(F)cc4C(F)(F)F)CC3)cc2)CC1 [Example 447],< 5.00,6.81,7.62,–,–,–
CC1(C)CC2CC(C)(CN2c2ccc(S(=O)(=O)C3(C(=O)NO)CCOCC3)cc2)C1 (stereo not drawn) [Example 214],< 5.00,5.46,5.31,–,–,–
CCCCOc1ccc(NC(=O)OC2CCN(c3ccc(S(=O)(=O)C4(C(=O)NO)CCOCC4)cc3)CC2)cc1 [Example 518],< 5.00,6.46,7.94,–,–,–
CC1CC(C)CN(C(=O)C2CCN(c3ccc(S(=O)(=O)C4(C(=O)NO)CCN(C(=O)CN5CCN(C)CC5)CC4)cc3)CC2)C1 (stereo not drawn) [Example 288],< 5.00,< 5.00,7.46,–,–,–
CC1CC(C)CN(C(=O)C2CCN(c3ccc(S(=O)(=O)C4(C(=O)NO)CCN(C(=O)CNCCc5c[nH]cn5)CC4)cc3)CC2)C1 (stereo not drawn) [Example 281],< 5.00,< 5.00,6.98,–,–,–
Cc1ccc(C(=O)C2CCN(c3ccc(S(=O)(=O)C4(C(=O)NO)CCOCC4)cc3)CC2)cc1C [Example 737],< 5.00,5.89,8.52,–,–,–
